{
  "source": "patent US10048272B2",
  "about": "“High-affinity small molecule formylpeptide receptor ligands from screening of combinatorial mixture-based libraries” (STC.UNM, priority 2013, dated 2018)",
  "key": {"[1]": {"target": "T1, FPR1 (Homo sapiens, UniProt P21462)", "T1 sequence (P21462 1-350)": "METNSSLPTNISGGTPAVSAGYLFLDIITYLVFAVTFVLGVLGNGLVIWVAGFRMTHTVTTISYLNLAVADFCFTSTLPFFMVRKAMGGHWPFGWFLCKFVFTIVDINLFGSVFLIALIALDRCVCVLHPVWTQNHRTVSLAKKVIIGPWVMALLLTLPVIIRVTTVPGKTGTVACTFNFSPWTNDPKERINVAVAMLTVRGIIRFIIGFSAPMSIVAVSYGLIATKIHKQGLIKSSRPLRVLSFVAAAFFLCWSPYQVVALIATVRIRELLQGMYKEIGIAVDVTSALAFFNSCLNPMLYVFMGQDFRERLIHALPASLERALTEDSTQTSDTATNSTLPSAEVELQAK", "assay": "Duplex flow cytometry receptor binding assay (WPep-FITC fluorescent ligand competition), U937/FPR1 cells", "parameters": "expressed in transfected cells; host or cells: U937 cells (U937/FPR1)", "conditions": "for Ki: WPep-FITC displacement, U937/FPR1 cells", "description": "Flow cytometry receptor binding assay. The assay was performed in a “duplex” format in which U937/FPR1 cells were tested together with RBL/FPR2 cells as previously described (Young, et al., 2009)(PubChem Summary AIDs 805 and 1202). The FPR1-expressing cells were stained with a red-fluorescent dye, FuraRed™ allowing them to be distinguished from the FPR2-expressing cells during flow cytometric analysis. A fluorescein label was conjugated to the lysine residue of the WPep peptide (WKYMVm) to produce a fluorescent ligand (WPep-FITC) that bound both FPR1 and FPR2. […] Assays were performed in polystyrene 384-well plates with small volume wells (Greiner #784101). Additions to wells were in sequence as follows: (1) test compounds and control reagents (5 ul/well); (2) the combined suspension of U937/FPR1 and RBL/FPR2 cells (5 ul/well) and; (3) (after 30 min, 4° C. incubation) WPep-FITC (5 ul/well). After an additional 45 min, 4° C. incubation, plates were immediately analyzed using flow cytometry. The assay response range was defined by replicate control wells containing unlabeled receptor-blocking peptide (positive control) or buffer (negative control). fMLFF was used as the FPR1-blocking peptide and unlabeled WPep as the FPR2-blocking peptide. Final concentration of WPep-FITC was 5 nM. The assay was homogeneous in that cells, compounds and fluorescent peptide were added in sequence and the wells subsequently analyzed without intervening wash steps. The HyperCyt™ high-throughput flow-cytometry platform (Kuckuck, et al., 2001; Ramirez, et al., 2003) was used to sequentially sample cells from wells of 384-well microplates (2 ul/sample) for presentation to a CyAn flow cytometer (Beckman-Coulter) at a rate of 40 samples/min. Fluorescence was excited at 488 nm and detected with 530/40 and 680/30 optical bandpass filters for WPep-FITC and FuraRed™, respectively. Test compound inhibition of fluorescent peptide binding was calculated as percent inhibition. WPep-FITC fluorescence intensity measurements of cells from control wells were also used to calculate Z′ factors (Zhang, et al., 1999), which ranged between 0.6 and 0.8 for each assay.\nDose response determinations. Fluorescent ligand competition dose response assays were performed essentially as described for single concentration assays except that test compounds were initially tested at a starting concentration of 10 mM in DMSO and serially diluted 1:3 to produce final concentration ranging from 67 μM to 0.1 nM. The resulting ligand competition curves were fitted by Prism software (GraphPad Software, Inc., San Diego, Calif.) using nonlinear least-squares regression in sigmoidal dose response model with variable slope, also known as the four parameter logistic equation. […]\n(§1) FPR expression ranged from 100,000 to 200,000 receptors per cell in different assays as determined by comparison to standard curves generated with Fluorescein Reference Standard Microbeads (Bangs Laboratories, Fishers, Ind.). […] To account for effects of possible ligand depletion at the higher receptor concentrations, Ki values were calculated from IC50 estimates by the method of Munson and Rodbard (Munson and Rodbard, 1988): Ki=Kd×[y0/(y0+2]+IC50/{1+[p*×(y0+2)]/[2×Kd×(y0+1)]+y0} in which y0 is the initial bound-to-free concentration ratio for the fluorescent ligand, p* is the added concentration of fluorescent ligand and Kd is the dissociation constant for the fluorescent ligand."}, "[2]": {"target": "T1, FPR1", "assay": "Intracellular calcium mobilization assay, FPR1 cells (agonist and antagonist determinations)", "type": "cell-based", "parameters": "expressed in transfected cells; host or cells: U937 cells (U937/FPR1)", "conditions": "for Functional activity in FPR1-mediated intracellular Ca2+ response (agonist/antagonist): result in words", "description": "(§2) Intracellular calcium mobilization assays. Intracellular calcium mobilization assays were performed as previously described with modifications (Edwards, et al., 2005). Briefly, cells were collected by centrifugation (200×g, 10 min, 24° C.) and suspended at 10^6/ml in 1 ml PBS (Ca^2+, Mg^2+ free). Cells were added with 210 nM Fluo4 (FPR2 cells) or with a combination of 210 nM Fluo4 and 210 nM FuraRed (FPR1 cells). After incubation for 30 min at 24° C. cells were washed with 1 ml PBS, suspended in 1 ml TCM (RPMI, 10% FBS) and stored in the dark at 24° C. until used in assays. For test compound agonist determinations, 50 μL from FPR1 and FPR2 cell suspensions were combined, analyzed 10 s in an Accuri C6 flow cytometer (BD Biosciences) to determine baseline Fluo4 fluorescence in the FL1 channel (530/20 nm), then added with 50 μL containing test compounds and analyzed an additional 110 s to evaluate changes in Fluo4 fluorescence intensity. During the analysis FPR1 cells were distinguished from FPR2 cells on the basis of FuraRed fluorescence intensity detected in the FL3 channel ([…]). The innate calcium response was quantified as the maximum % of cells that exceeded the baseline Fluo4 fluorescence intensity over the course of the analysis. These responses were normalized to the innate calcium responses observed in the presence of 11 nM control peptides: 4pep for FPR1 cells and Wpep for FPR2 cells as follows: Normalized Calcium Response (%)=100×innate response % to test compound/innate response % to control peptide.\n(§3) For test compound antagonist determinations, 10 μL test compound was added to the combined FPR1/FPR2 cell mixture and incubated 5 min at 24° C. prior to assessing the innate calcium response to subsequent addition of fMLFF or Wpep peptide. In these determinations, fMLFF and Wpep were used at concentrations that produced 90% of the maximal intracellular calcium response (EC90), and responses were normalized with respect to the innate response to each control peptide observed in the absence of test compounds.\n(§4) Intracellular Ca^2+ dose response curves were also fitted using nonlinear least-squares regression in a sigmoidal dose response model with variable slope. Curve fit statistics were used to determine the concentration of added test compound competitor that inhibited Ca^2+ responses by 50 percent (IC50) for antagonists or effected increases in Ca^2+ response by 50% (EC50) for agonists. Since responses were normalized relative to control stimuli the top and bottom of the fitted curves were fixed at 100 and 0."}, "[3]": {"target": "T2, FPR2 (Homo sapiens, UniProt P25090)", "T2 sequence (P25090 1-351)": "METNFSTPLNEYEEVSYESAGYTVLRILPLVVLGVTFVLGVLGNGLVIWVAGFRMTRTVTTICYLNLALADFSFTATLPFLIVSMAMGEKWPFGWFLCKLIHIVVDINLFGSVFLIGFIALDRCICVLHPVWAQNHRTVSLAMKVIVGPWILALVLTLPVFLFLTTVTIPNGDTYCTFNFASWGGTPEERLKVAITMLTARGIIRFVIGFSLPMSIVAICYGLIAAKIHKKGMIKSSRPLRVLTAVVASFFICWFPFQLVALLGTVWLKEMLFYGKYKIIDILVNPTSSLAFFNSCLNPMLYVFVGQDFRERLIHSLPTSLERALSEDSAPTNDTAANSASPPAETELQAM", "assay": "Duplex flow cytometry receptor binding assay (WPep-FITC fluorescent ligand competition), RBL/FPR2 cells", "parameters": "expressed in transfected cells", "conditions": "for FPR2 selectivity: FPR2 over FPR1", "description": "Flow cytometry receptor binding assay. The assay was performed in a “duplex” format in which U937/FPR1 cells were tested together with RBL/FPR2 cells as previously described (Young, et al., 2009)(PubChem Summary AIDs 805 and 1202). The FPR1-expressing cells were stained with a red-fluorescent dye, FuraRed™ allowing them to be distinguished from the FPR2-expressing cells during flow cytometric analysis. A fluorescein label was conjugated to the lysine residue of the WPep peptide (WKYMVm) to produce a fluorescent ligand (WPep-FITC) that bound both FPR1 and FPR2. […] Assays were performed in polystyrene 384-well plates with small volume wells (Greiner #784101). Additions to wells were in sequence as follows: (1) test compounds and control reagents (5 ul/well); (2) the combined suspension of U937/FPR1 and RBL/FPR2 cells (5 ul/well) and; (3) (after 30 min, 4° C. incubation) WPep-FITC (5 ul/well). After an additional 45 min, 4° C. incubation, plates were immediately analyzed using flow cytometry. The assay response range was defined by replicate control wells containing unlabeled receptor-blocking peptide (positive control) or buffer (negative control). fMLFF was used as the FPR1-blocking peptide and unlabeled WPep as the FPR2-blocking peptide. Final concentration of WPep-FITC was 5 nM. The assay was homogeneous in that cells, compounds and fluorescent peptide were added in sequence and the wells subsequently analyzed without intervening wash steps. […] Fluorescence was excited at 488 nm and detected with 530/40 and 680/30 optical bandpass filters for WPep-FITC and FuraRed™, respectively. Test compound inhibition of fluorescent peptide binding was calculated as percent inhibition. WPep-FITC fluorescence intensity measurements of cells from control wells were also used to calculate Z′ factors (Zhang, et al., 1999), which ranged between 0.6 and 0.8 for each assay. […]\nas §1"}, "[4]": {"target": "T2, FPR2", "assay": "Intracellular calcium mobilization assay, FPR2 cells (agonist and antagonist determinations)", "type": "cell-based", "parameters": "expressed in transfected cells", "conditions": "for Functional activity in FPR2-mediated intracellular Ca2+ response (agonist/antagonist): result in words", "description": "as §2, §3, §4"}, "[5]": {"target": "T1, FPR1", "conditions": "literature; cited from earlier work"}, "[6]": {"target": "T2, FPR2", "conditions": "literature; cited from earlier work"}, "[7]": {"conditions": "second compound of the printed pair relative to the first (1754-26 to 1754-56)"}},
  "note": "“Also recorded” adds a separate entry of the source.",
  "data": [
    {"smiles": "CCCC[C@H](CN(C(=O)Nc1ccccc1)[C@@H](C)CNC(=O)Nc1ccccc1)N(CCCCc1ccccc1)C(=O)Nc1ccccc1", "note": "[1753-103]", "values": [
      {"measurement": "Ki", "setting": "[1]", "value": 4, "unit": "nM"},
      {"measurement": "EC50", "setting": "[2]; agonist determination, read-out: EC50, intracellular Ca2+ response, FPR1 agonist", "value": 131, "unit": "nM"},
      {"measurement": "Response efficacy (fitted Top), Ca2+ response in FPR1 cells", "setting": "[2]; maximum response relative to control peptide 4pep (fMLFF)", "value": 78, "unit": "%"},
      {"measurement": "Functional activity in FPR1-mediated intracellular Ca2+ response (agonist/antagonist)", "setting": "[2]", "value": "selective partial agonists; also recorded: agonist"}
    ]},
    {"smiles": "CC(C)[C@H]1CNC(=O)C(=O)N1C[C@@H]1CCCN1C[C@@H](Cc1ccc2ccccc2c1)N1C[C@@H](Cc2ccc(O)cc2)N(CC2CCCCC2)C(=O)C1=O", "note": "[1754-31]", "values": [
      {"measurement": "Receptor selectivity, FPR1 versus FPR2, in ligand competition binding (in words)", "setting": "[1]", "value": "FPR2 selective"},
      {"measurement": "Ki", "setting": "[1]", "value": "> 10000", "unit": "nM"},
      {"measurement": "Ki", "setting": "[3]; WPep-FITC displacement, RBL/FPR2 cells", "value": 1, "unit": "nM"},
      {"measurement": "FPR2 selectivity", "setting": "[3]; as printed in b133 ('nM Ki')", "value": "> 10,000 nM"},
      {"measurement": "FPR2 selectivity", "setting": "[3]; no unit", "value": "> 10,000"},
      {"measurement": "IC50", "setting": "[4]; antagonist determination, Wpep at EC90, read-out: IC50, intracellular Ca2+ response, FPR2 antagonist", "value": 81, "unit": "nM"},
      {"measurement": "Functional activity in FPR2-mediated intracellular Ca2+ response (agonist/antagonist)", "setting": "[4]", "value": "antagonist"}
    ]},
    {"smiles": "CCCCOc1ccc(C(=O)NN2C(=O)c3ccccc3NC2c2ccc(O)cc2)cc1", "note": "(centres unmarked) [Quin-C7]", "values": [
      {"measurement": "Functional activity at FPR1 (in words)", "setting": "[5]", "value": "antagonist"}
    ]},
    {"smiles": "CCCCOc1ccc(C(=O)NN2C(=O)c3ccccc3NC2c2ccc(OC)cc2)cc1", "note": "(centres unmarked) [Quin-C1]", "values": [
      {"measurement": "Functional activity at FPR2 (in words)", "setting": "[6]", "value": "agonist"}
    ]},
    {"smiles": "CCCC[C@H]1CNC(=O)C(=O)N1C[C@@H]1CCCN1C[C@@H](CCC)N1C[C@@H](Cc2ccc(O)cc2)N(CCc2ccc(-c3ccccc3)cc2)C(=O)C1=O", "note": "[1754-56]", "values": [
      {"measurement": "Receptor selectivity, FPR1 versus FPR2, in ligand competition binding (in words)", "setting": "[1]", "value": "FPR1 selective"},
      {"measurement": "Increase of activity for FPR1 (potency difference, pKi)", "setting": "[1]; [7]", "value": 1.36, "unit": "log units"},
      {"measurement": "Decrease of activity for FPR2 (potency difference, pKi)", "setting": "[3]; [7]", "value": 1.28, "unit": "log units"},
      {"measurement": "EC50, FPR2-mediated Ca2+ response, agonist (in words)", "setting": "[4]; matched the Ki value of the ligand displacement assay", "value": "low micromolar"},
      {"measurement": "Response efficacy (fitted Top), Ca2+ response in FPR2 cells", "setting": "[4]; maximum response relative to control peptide Wpep (WKYMVm)", "value": 98, "unit": "%"},
      {"measurement": "Functional activity in FPR2-mediated intracellular Ca2+ response (agonist/antagonist)", "setting": "[4]", "value": "agonist"},
      {"measurement": "Functional activity in FPR1-mediated intracellular Ca2+ response (agonist/antagonist)", "setting": "[2]", "value": "antagonist"}
    ]}
  ]
}
